Laboratory results published in PMC12520178, “Turn-engineering tunes the conformational rigidity of β-hairpin AMPs in achieving membrane selectivity and killing drug-resistant ESKAPE pathogens” (Chemical Science, 2025).
Converted amounts (≈) assume the structure as drawn. Read-outs that look alike come from different tables or passages of the source. Where a SMILES comes first, the peptide text is derived from it. Bridges are numbered along the chain shown (N, C = ends). [ ]: non-standard residue; d: D form. NMeR = CN[C@@H](CCCNC(=N)N)C(=O)O

Tests used:
Escherichia coli = format: cell-based
human red blood cells = conditions: red cells of human
Klebsiella pneumoniae = format: cell-based
Acinetobacter baumannii = format: cell-based
Pseudomonas aeruginosa = format: cell-based
Staphylococcus aureus = experiment: microbe, parasite or virus in culture; format: cell-based

| MIC90 (Escherichia coli) [µM] | MIC (μM) kp (Klebsiella pneumoniae) [µM] | MIC (μM) ab (Acinetobacter baumannii) [µM] | MIC (μM) ec (Escherichia coli) [µM] | MIC (μM) pa (Pseudomonas aeruginosa) [µM] | MIC (μM) sa (Staphylococcus aureus) [µM] | MIC (μM) kp (Klebsiella pneumoniae; Klebsiella pneumoniae, non-resistant, microbroth dilution, n = 5) [µM] | MIC (μM) ab (Acinetobacter baumannii; Acinetobacter baumannii, non-resistant, microbroth dilution, n = 5) [µM] | MIC (μM) pa (Pseudomonas aeruginosa; Pseudomonas aeruginosa, non-resistant, microbroth dilution, n = 5) [µM] | Compound | MHC10 (μM), minimum hemolytic concentration (human red blood cells) [µM] | MIC (Staphylococcus aureus; Staphylococcus aureus, read-out: MIC (μM) sa) [µM] |
| --- | --- | --- | --- | --- | --- | --- | --- | --- | --- | --- | --- |
| 0.4 (≈ 0.845 µg/mL) |  |  |  |  |  |  |  |  | CC(C)C[C@H](NC(=O)[C@H](CCCNC(=N)N)NC(=O)CNC(=O)CNC(=O)[C@@H](N)CCCNC(=N)N)C(=O)N[C@H]1CSSC[C@@H](C(=O)N[C@H](C(=O)NCC(=O)N[C@@H](CCCNC(=N)N)C(N)=O)C(C)C)NC(=O)[C@H](C(C)C)NC(=O)[C@@H]2CSSC[C@H](NC(=O)[C@H](Cc3ccc(O)cc3)NC1=O)C(=O)N[C@@H](CCCNC(=N)N)C(=O)N[C@H](C(C)C)C(=O)N(C)[C@@H](CCCNC(=N)N)C(=O)N[C@@H](Cc1ccccc1)C(=O)N2 [2b] (H-RGGRLCYCR[dV][NMeR]FCVCVGR-NH2; disulfide 6-15, 8-13) | 3.12 |  |
| 0.5 (≈ 1.04 µg/mL) |  |  |  |  |  |  |  |  | CC(C)C[C@H](NC(=O)[C@H](CCCNC(=N)N)NC(=O)CNC(=O)CNC(=O)[C@@H](N)CCCNC(=N)N)C(=O)N[C@H]1CSSC[C@@H](C(=O)N[C@H](C(=O)NCC(=O)N[C@@H](CCCNC(=N)N)C(N)=O)C(C)C)NC(=O)[C@H](C(C)C)NC(=O)[C@@H]2CSSC[C@H](NC(=O)[C@H](Cc3ccc(O)cc3)NC1=O)C(=O)N[C@@H](CCCNC(=N)N)C(=O)N[C@H](C)C(=O)N(C)[C@@H](CCCNC(=N)N)C(=O)N[C@@H](Cc1ccccc1)C(=O)N2 [2a] (H-RGGRLCYCR[dA][NMeR]FCVCVGR-NH2; disulfide 6-15, 8-13) | 3.12 |  |
| 1.1 (≈ 2.76 µg/mL) |  |  |  |  |  |  |  |  | CC(C)[C@H](NC(=O)[C@H](CCCNC(=N)N)NC(=O)[C@H](Cc1ccccc1)NC(=O)[C@@H](NC(=O)[C@H](Cc1c[nH]c2ccccc12)NC(=O)[C@H](CCCNC(=N)N)NC(=O)[C@@H](N)CCCNC(=N)N)[C@@H](C)O)C(=O)N[C@H](C(=O)N[C@@H](Cc1ccc(O)cc1)C(=O)N[C@@H](C(=O)N(C)[C@@H](CCCNC(=N)N)C(=O)N[C@@H](Cc1ccccc1)C(=O)N[C@H](C(=O)N[C@@H](Cc1ccc(O)cc1)C(=O)N[C@@H](CCCNC(=N)N)C(=O)N[C@@H](CCCCN)C(=O)N[C@H](C(=O)N[C@@H](CCCNC(=N)N)C(N)=O)[C@@H](C)O)[C@@H](C)O)C(C)C)[C@@H](C)O [3e] (H-RRWTFRVTY[dV][NMeR]FTYRKTR-NH2) | 50 |  |
| 0.3 (≈ 0.647 µg/mL) | 0.6 (≈ 1.29 µg/mL) | 0.4 (≈ 0.862 µg/mL) | 0.3 (≈ 0.647 µg/mL) | 0.6 (≈ 1.29 µg/mL) | 3.1 (≈ 6.68 µg/mL) |  |  |  | CC(C)C[C@H](NC(=O)[C@H](CCCNC(=N)N)NC(=O)CNC(=O)CNC(=O)[C@@H](N)CCCNC(=N)N)C(=O)N[C@H]1CSSC[C@@H](C(=O)N[C@H](C(=O)NCC(=O)N[C@@H](CCCNC(=N)N)C(N)=O)C(C)C)NC(=O)[C@H](C(C)C)NC(=O)[C@@H]2CSSC[C@H](NC(=O)[C@H](Cc3ccc(O)cc3)NC1=O)C(=O)N[C@@H](CCCNC(=N)N)C(=O)N[C@@H](CCCNC(=N)N)C(=O)N[C@@H](CCCNC(=N)N)C(=O)N[C@@H](Cc1ccccc1)C(=O)N2 [compound 2, reference compound] | 3.12 |  |
| 0.4 (≈ 0.915 µg/mL) | 1.6 (≈ 3.66 µg/mL) | 0.8 (≈ 1.83 µg/mL) |  | 1.6 (≈ 3.66 µg/mL) | 3.1 (≈ 7.09 µg/mL) |  |  |  | CC[C@H](C)[C@H](NC(=O)[C@H](CCCNC(=N)N)N(C)C(=O)[C@@H](C)NC(=O)[C@H](Cc1ccc(O)cc1)NC(=O)[C@@H](NC(=O)[C@@H](NC(=O)[C@H](CCCNC(=N)N)NC(=O)[C@H](Cc1ccccc1)NC(=O)[C@@H](NC(=O)[C@H](Cc1c[nH]c2ccccc12)NC(=O)[C@@H](N)CCCCN)[C@@H](C)O)C(C)C)[C@@H](C)O)C(=O)N[C@H](C(=O)N[C@@H](Cc1ccc(O)cc1)C(=O)N[C@@H](CCCNC(=N)N)C(=O)N[C@@H](CCCNC(=N)N)C(=O)N[C@H](C(=O)N[C@@H](CCCNC(=N)N)C(N)=O)[C@@H](C)O)[C@@H](C)O [4d] (H-KWTFRVTY[dA][NMeR]ITYRRTR-NH2) | 100 |  |
|  |  |  |  |  |  |  |  |  | CN[C@H](CC(C)C)C(=O)N[C@H]1C(=O)N[C@@H](CC(N)=O)C(=O)N[C@H]2C(=O)N[C@H]3C(=O)N[C@H](C(=O)N[C@H](C(=O)O)c4cc(O)cc(O)c4-c4cc3ccc4O)[C@H](O)c3ccc(c(Cl)c3)Oc3cc2cc(c3O[C@@H]2O[C@H](CO)[C@@H](O)[C@H](O)[C@H]2O[C@H]2C[C@](C)(N)[C@H](O)[C@H](C)O2)Oc2ccc(cc2Cl)[C@H]1O [Vancomycin, reference compound] |  | 0.6 (≈ 0.87 µg/mL) |
| 0.4 (≈ 0.925 µg/mL) | 0.8 (≈ 1.85 µg/mL) | 0.4 (≈ 0.925 µg/mL) | 0.4 (≈ 0.925 µg/mL) | 0.8 (≈ 1.85 µg/mL) | 0.8 (≈ 1.85 µg/mL) |  |  |  | CC(C)[C@@H]1NC(=O)[C@@H](NC(=O)[C@H](Cc2c[nH]c3ccccc23)NC(=O)[C@@H](N)CCCNC(=N)N)CSSC[C@@H](C(=O)N[C@@H](Cc2c[nH]c3ccccc23)C(=O)O)NC(=O)[C@H](CCCNC(=N)N)NC(=O)[C@H](CCCNC(=N)N)NC(=O)[C@H](Cc2ccc(O)cc2)NC(=O)[C@H](CCCNC(=N)N)NC(=O)[C@H](C(C)C)NC(=O)[C@H](CCCNC(=N)N)N(C)C(=O)[C@@H](C)NC(=O)[C@H](C(C)C)NC(=O)[C@H](CCCNC(=N)N)NC(=O)[C@H](C)NC(=O)[C@H](Cc2ccc(O)cc2)NC1=O [1a] (H-RWCVYARV[dA][NMeR]VRYRRCW-OH; disulfide 3-16) |  |  |
| 0.2 (≈ 0.468 µg/mL) | 0.4 (≈ 0.936 µg/mL) | 0.8 (≈ 1.87 µg/mL) | 0.2 (≈ 0.468 µg/mL) | 0.8 (≈ 1.87 µg/mL) | 0.4 (≈ 0.936 µg/mL) |  |  |  | CC(C)[C@@H]1NC(=O)[C@@H](NC(=O)[C@H](Cc2c[nH]c3ccccc23)NC(=O)[C@@H](N)CCCNC(=N)N)CSSC[C@@H](C(=O)N[C@@H](Cc2c[nH]c3ccccc23)C(=O)O)NC(=O)[C@H](CCCNC(=N)N)NC(=O)[C@H](CCCNC(=N)N)NC(=O)[C@H](Cc2ccc(O)cc2)NC(=O)[C@H](CCCNC(=N)N)NC(=O)[C@H](C(C)C)NC(=O)[C@H](CCCNC(=N)N)N(C)C(=O)[C@@H](C(C)C)NC(=O)[C@H](C(C)C)NC(=O)[C@H](CCCNC(=N)N)NC(=O)[C@H](C)NC(=O)[C@H](Cc2ccc(O)cc2)NC1=O [1b] (H-RWCVYARV[dV][NMeR]VRYRRCW-OH; disulfide 3-16) |  |  |
|  |  |  |  |  |  | 3.0 | 0.8 | 0.8 | Polymyxin B [reference compound] |  |  |
| 0.3 (≈ 0.633 µg/mL) |  |  |  |  |  |  |  |  | CC(C)C[C@H](NC(=O)[C@H](CCCNC(=N)N)NC(=O)CNC(=O)CNC(=O)[C@@H](N)CCCNC(=N)N)C(=O)N[C@H](C(=O)N[C@@H](Cc1ccc(O)cc1)C(=O)N[C@H](C(=O)N[C@@H](CCCNC(=N)N)C(=O)N[C@@H](C(=O)N(C)[C@@H](CCCNC(=N)N)C(=O)N[C@@H](Cc1ccccc1)C(=O)N[C@H](C(=O)N[C@H](C(=O)N[C@H](C(=O)N[C@H](C(=O)NCC(=O)N[C@@H](CCCNC(=N)N)C(N)=O)C(C)C)[C@@H](C)O)C(C)C)[C@@H](C)O)C(C)C)[C@@H](C)O)[C@@H](C)O [2e] (H-RGGRLTYTR[dV][NMeR]FTVTVGR-NH2) | 50 |  |
| 0.2 (≈ 0.463 µg/mL) |  |  |  |  |  |  |  |  | CC[C@H](C)[C@H](NC(=O)[C@H](CCCNC(=N)N)N(C)C(=O)[C@H](NC(=O)[C@H](Cc1ccc(O)cc1)NC(=O)[C@@H](NC(=O)[C@@H](NC(=O)[C@H](CCCNC(=N)N)NC(=O)[C@H](Cc1ccccc1)NC(=O)[C@@H](NC(=O)[C@H](Cc1c[nH]c2ccccc12)NC(=O)[C@@H](N)CCCCN)[C@@H](C)O)C(C)C)[C@@H](C)O)C(C)C)C(=O)N[C@H](C(=O)N[C@@H](Cc1ccc(O)cc1)C(=O)N[C@@H](CCCNC(=N)N)C(=O)N[C@@H](CCCNC(=N)N)C(=O)N[C@H](C(=O)N[C@@H](CCCNC(=N)N)C(N)=O)[C@@H](C)O)[C@@H](C)O [4e] (H-KWTFRVTY[dV][NMeR]ITYRRTR-NH2) | 50 |  |
| 2.4 (≈ 5.48 µg/mL) | 1.6 (≈ 3.65 µg/mL) | 3.12 (≈ 7.12 µg/mL) | 2.4 (≈ 5.48 µg/mL) | 12.5 (≈ 28.5 µg/mL) | 2.4 (≈ 5.48 µg/mL) |  |  |  | CC(C)[C@H](NC(=O)CNC(=O)[C@H](CCCNC(=N)N)NC(=O)[C@@H](NC(=O)[C@H](CCCNC(=N)N)NC(=O)[C@H](C)NC(=O)[C@H](Cc1ccc(O)cc1)NC(=O)[C@@H](NC(=O)[C@@H](NC(=O)[C@H](Cc1c[nH]c2ccccc12)NC(=O)[C@@H](N)CCCNC(=N)N)[C@@H](C)O)C(C)C)C(C)C)C(=O)N[C@@H](CCCNC(=N)N)C(=O)N[C@@H](Cc1ccc(O)cc1)C(=O)N[C@@H](CCCNC(=N)N)C(=O)N[C@@H](CCCNC(=N)N)C(=O)N[C@H](C(=O)N[C@@H](Cc1c[nH]c2ccccc12)C(=O)O)[C@@H](C)O [1c] (H-RWTVYARVRGVRYRRTW-OH) |  |  |
| 0.6 (≈ 1.4 µg/mL) | 1.6 (≈ 3.74 µg/mL) | 0.4 (≈ 0.935 µg/mL) | 0.6 (≈ 1.4 µg/mL) | 0.8 (≈ 1.87 µg/mL) | 2.6 (≈ 6.08 µg/mL) |  |  |  | CC(C)[C@H](NC(=O)[C@H](CCCNC(=N)N)NC(=O)[C@H](C)NC(=O)[C@H](Cc1ccc(O)cc1)NC(=O)[C@@H](NC(=O)[C@@H](NC(=O)[C@H](Cc1c[nH]c2ccccc12)NC(=O)[C@@H](N)CCCNC(=N)N)[C@@H](C)O)C(C)C)C(=O)N[C@@H](C(=O)N(C)[C@@H](CCCNC(=N)N)C(=O)N[C@H](C(=O)N[C@@H](CCCNC(=N)N)C(=O)N[C@@H](Cc1ccc(O)cc1)C(=O)N[C@@H](CCCNC(=N)N)C(=O)N[C@@H](CCCNC(=N)N)C(=O)N[C@H](C(=O)N[C@@H](Cc1c[nH]c2ccccc12)C(=O)O)[C@@H](C)O)C(C)C)C(C)C [1e] (H-RWTVYARV[dV][NMeR]VRYRRTW-OH) |  |  |
